Experimental data from ChEMBL document CHEMBL4052777, “Synthesis of novel hybrids of pyrazole and coumarin as dual inhibitors of COX-2 and 5-LOX” (Bioorg Med Chem Lett, 2017).

Columns and labels:
SMMC-7721 = experiment: Antiproliferative activity against human SMMC7721 cells after 48 hrs by MTT assay; assay type: functional, cell-based; details: SMMC-7721, 48 h
A549 = experiment: cells; details: Homo sapiens, A549, 48 h
HEK-293T = experiment: Antiproliferative activity against human 293T cells after 48 hrs by MTT assay; assay type: cell-based
HT-29 = experiment: cells; details: Homo sapiens, HT-29, 48 h
Description: Antiproliferative activity against human HT-29 cells after 48 hrs by MTT assay

HeLa = experiment: cells; details: Homo sapiens, 48 h

Structure (SMILES) | IC50 (SMMC-7721) | IC50 (A549) | IC50 (HEK-293T) | IC50 (HT-29) | IC50 (HeLa)
Cc1ccc(-c2cc(C(F)(F)F)nn2-c2ccc(S(N)(=O)=O)cc2)cc1 [CELECOXIB] | 5.96 µM | 7.68 µM | 112 µM | 8.47 µM | 11.1 µM
O=c1ccc2ccc(O)cc2o1 [UMBELLIFERONE] | 19.9 µM | 21.1 µM | 190 µM | 22.7 µM | 42.4 µM
